Experimental data published in patent US20160015637A1, “ANTI-ITCHING POWDER” (Lilac Laboratory Co., Ltd., priority 2014, published 2016).

Experiment: itch prevention effect experiment (somesthetic testing, powder applied to the skin over the whole body)
Format: in vivo, examinees (male: 2, female: 1)
Settings: for proportion of itch: itches without application set to 100, climbing/running 100 times, eight hours from test start; for itch removal / itch prevention effect bodily sensed: somesthetic testing, result in words
Description: Purpose of Experiment The fine powder of the aluminum chloride hexahydrate and the cyclodextrin (referred to as the CD) were each used alone for application to the skin over the whole body. From the result, whether the itch prevention effect was able to be bodily sensed or not was determined through somesthetic testing.
Participated Examinees three (male: 2, female: 1)
Testing Method Fine powder compositions of Experiment 1 to Experiment 3 were applied to the skin over the whole body. The climbing of a low mountain (altitude: 300 to 400 m) of 2 to 20 km and running of 2 to 15 km were executed 100 times appropriately for all seasons and for two years with the respective samples. Whether the itch was clearly removed or not and the appearance of the itch was able to be prevented or not were measured setting eight hours from the test start as terminal time. During the period, the somesthetic testing was conducted for determination. The total count of itches developed without application of various kinds of fine powder agents to the skin over the whole body (the head, the face, the body, and the entire feet) was set to 100. The degree of the itch was indicated by a “proportion of itch.”

| Structure (SMILES) | proportion of itch | itch removal / itch prevention effect bodily sensed |
| --- | --- | --- |
| OC[C@H]1O[C@@H]2O[C@H]3[C@H](O)[C@@H](O)[C@@H](O[C@H]4[C@H](O)[C@@H](O)[C@@H](O[C@H]5[C@H](O)[C@@H](O)[C@@H](O[C@H]6[C@H](O)[C@@H](O)[C@@H](O[C@H]7[C@H](O)[C@@H](O)[C@@H](O[C@H]8[C@H](O)[C@@H](O)[C@@H](O[C@H]9[C@H](O)[C@@H](O)[C@@H](O[C@H]1[C@H](O)[C@H]2O)O[C@@H]9CO)O[C@@H]8CO)O[C@@H]7CO)O[C@@H]6CO)O[C@@H]5CO)O[C@@H]4CO)O[C@@H]3CO [γ-CD] | 100% | the itch prevention effect was not able to be bodily sensed |
| OC[C@H]1O[C@@H]2O[C@H]3[C@H](O)[C@@H](O)[C@@H](O[C@H]4[C@H](O)[C@@H](O)[C@@H](O[C@H]5[C@H](O)[C@@H](O)[C@@H](O[C@H]6[C@H](O)[C@@H](O)[C@@H](O[C@H]7[C@H](O)[C@@H](O)[C@@H](O[C@H]8[C@H](O)[C@@H](O)[C@@H](O[C@H]1[C@H](O)[C@H]2O)O[C@@H]8CO)O[C@@H]7CO)O[C@@H]6CO)O[C@@H]5CO)O[C@@H]4CO)O[C@@H]3CO [β-CD] | 100% | the itch prevention effect was not able to be bodily sensed |
| OC[C@H]1O[C@@H]2O[C@H]3[C@H](O)[C@@H](O)[C@@H](O[C@H]4[C@H](O)[C@@H](O)[C@@H](O[C@H]5[C@H](O)[C@@H](O)[C@@H](O[C@H]6[C@H](O)[C@@H](O)[C@@H](O[C@H]7[C@H](O)[C@@H](O)[C@@H](O[C@H]1[C@H](O)[C@H]2O)O[C@@H]7CO)O[C@@H]6CO)O[C@@H]5CO)O[C@@H]4CO)O[C@@H]3CO [α-CD] | 100% | The itch was not removed |
